Reference: patent US20250145961A1, “GENERATING BONE MARROW ORGANOIDS” (The University of Birmingham, priority 2022, published 2025)

How the values were obtained:
Type in all cases: cell-based, human
bone marrow organoids = test: TGFβ-induced fibrosis of bone marrow organoids (immunofluorescence, qRT PCR); settings: for TGFβ-induced collagen deposition / TGFβ-induced αSMA expression: bone marrow organoids stimulated with TGFβ, N=4 and 3 respectively, Kruskal-Wallis with multiple comparisons
Text: FIG. 7: Treatment of organoids with TGFβ induced fibrosis of the organoids, modelling bone marrow fibrosis seen in patients. […] Increase of signal in these images is indicative of treatment inducing classic markers of fibrosis. […] Finally, we confirmed the utility of this model to screen for potential inhibitors of bone marrow fibrosis. […] (N=4 and 3 respectively, significance testing with Kruskal-Wallis with multiple comparisons).
To model myelofibrosis (MF), we treated bone marrow organoids with Transforming Growth Factor β (TGFβ, Peprotech) at various concentrations for 72 hours. Treated organoids were maintained in this media before collection via pasteurette and fixation for immunofluorescence (whole organoids or embedded sections), or centrifugation for RNA extraction and subsequent quantitative Real Time Polymerase Chain Reaction (qRT PCR assessment of changes in gene expression). RNA extraction was performed using the Qiagen RNAEasy micro kit to the manufacturer's instructions.
qRT-PCR was performed on an Applied Biosystems 7500 Fast Real Time PCR System. Primers were obtained from Integrated DNA Technologies (IDT) as pre-validated PrimeTime qPCR primers. Reactions were prepared from lug of isolated RNA converted to cDNA with the High Capacity cDNA Reverse Transcription Kit (Applied Biosystems) under manufacturer recommended thermal cycling conditions. Synthesised cDNA was diluted 5-fold and stored at −20° C. until required.
A master mix was prepared for each qPCR reaction which was made up of 10 μl TaqMan® Universal Primer MasterMix (thermos), 1 μl of forward and reverse primers, and 2 μl of cDNA at a final concentration of 5 ng/mL. Calculations for fold changes in expression were performed using the ΔΔCT method, with human GAPDH used as a housekeeping gene, and undifferentiated iPSC used as controls for expression levels.
Immunofluorescence was performed using a Zeiss LSM880 confocal microscope (25×0.8 LD LCI plan apo 0.8 dual immersion objective). Samples were prepared first by fixation in 10% formalin, before 3×5 min successive washes with PBS. Samples were then blocked overnight in a detergent blocking solution comprised of 2% goat serum (Thermo), 1% Bovine Serum Albumin (BSA) in 50 mL of PBS. 250 μl of Triton X100 and Tween-20 (Sigma) were added, as well as 500 μl sodium deoxycholate (Sigma) to permeabilise samples and encourage antibody preparation. Primary antibody incubations were performed overnight at 4° C., before 4×5-minute successive washes in PBS. Samples were then incubated overnight once more at 4° C. in secondary antibody mixes: DAPI for nuclear labelling, Alexa-488, Alxea-568, and Alexa-647 (Thermo) depending on the species mix of antibodies present.

MF-patient organoids = test: Bone marrow organoids engrafted with CD34+ cells from patients with myelofibrosis, screen of potential therapies (immunofluorescence of paraffin embedded sections); settings: organoids seeded with MF patient cells for 14 days, treatment at day 7 post engraftment, 0.1 and 1 uM, vs DMSO treated
Description: FIG. 12: Organoids engrafted with CD34^+ cells from patients with myelofibrosis can be used to screen potential therapies in a patient specific approach. Bone marrow organoids were seeded with cells from patients with myelofibrosis for 14 days in total, with pharmacological interventions staged at day 7 post engraftment. […] Samples were also treated with the inhibitor SB431542, the BET bromodomain inhibitor JQ1, and the current clinical treatment for myelofibrosis ruxolitinib (at 0.1 and 1 uM respectively). […] (B) Representative immunofluorescence imaging of paraffin embedded sections.
Cells were isolated from cryopreserved peripheral blood or bone marrow mononuclear cells and stained with CellVue Claret Far Red Fluorescent Cell Linker Mini Kit for General Membrane Labeling (Sigma Aldrich, Cat #MINCLARET-1KT) following the instructions provided by the manufacturer. Organoids were seeded with 5000 cells per wells and cultured for 8-14 days in StemPro. On collection day, organoids were fixed for imaging or digested for assessment by flow cytometry or RNA extraction and qRT PCR.
Sections were blocked using 2% Goat Serum (Thermo Fisher Scientific, Cat #31872) 1% Bovine Serum Albumin (BSA) (Sigma, Cat #A9418) prior to primary antibody labelling with antibody diluted in 1% BSA, sequential PBS washes, and finally secondary labelling with AlexaFluor conjugates. […]

organoid endothelium = test: Addition of VEGFC to the organoid growth factor cocktail, specialisation of organoid endothelium
Text: FIG. 4: Addition of VEGFC induces specialisation of organoid endothelium to resemble bone marrow sinusoidal endothelium. The protocol thus far generated an organoid producing the key lineages of the central human bone marrow. However, bone marrow sinusoidal endothelium, is a highly specialised for regulating haematopoeitic cell behaviours.
FIG. 5: VEGFC induces development of CD34+ sinusoidal vascular network in organoids. […] Immunofluorescence images show significant staining of the vessels in the VEGFA+C treated sample when compared to VEGFA. (B) Close association of CD41+ megakaryocytes with vessels in the organoids. […] (C) CD41+ megakaryocytes are shown forming pro-platelet extensions in sections of BM organoids.
Once fully polymerised, 3D cultures were supplemented in Phase III sprouting medium which was comprised of APELII medium supplemented with 5% Foetal Bovine Serum (FBS), 5 U/mL Heparin Sulfate, 50 ng VEGFA, 10 ng each Interleukin 3 (IL3) and Interleukin 6 (IL6), as well as 25 ng each of SCF, Flt3, Thrombopoietin (TPO), Erythropoietin (EPO), Granulocyte Colony Stimulating Factor (G-CSF) (Stem Cell Technologies), FGF2, and BMP4. Cells were maintained in this media formulation until d12, with media changes every 72 hours. From d5 onwards, media changes are performed as 60:40 splits fresh: conditioned medium. […]

With `NC(=O)c1ccc(-c2nc(-c3ccc4c(c3)OCO4)c(-c3ccccn3)[nH]2)cc1` [SB431542] the TGFβ-induced collagen deposition (bone marrow organoids) was “significantly reduced” and the “TGFβ-induced αSMA expression” value (bone marrow organoids) was “significantly reduced”.

`Cc1sc2c(c1C)C(c1ccc(Cl)cc1)=N[C@@H](CC(=O)OC(C)(C)C)c1nnc(C)n1-2` [JQ1] was tested, and the TGFβ-induced collagen deposition (bone marrow organoids) was “significantly reduced”, the “TGFβ-induced αSMA expression” value (bone marrow organoids) was “significantly reduced” and the “COL1A1 level, immunofluorescence” value (MF-patient organoids) was “significant reductions”. The “αSMA level, immunofluorescence” value (MF-patient organoids) was “significantly reduced”.

For TGFβ, the “expression of α-smooth muscle actin (α-SMA) and collagen I (COL1A1), staining” value (bone marrow organoids; 72-hours of stimulation, compared to an untreated control) was “increase in the expression” and the “canonical fibrosis markers by qRT PCR” value (bone marrow organoids; various concentrations of TGFβ for 72 hours) was “dose dependent increase”.

B1: VEGFC: Vascular Endothelial Growth Factor C (Stem Cell Technologies), growth factor supplemented into medium (protein, UniProt P49767 112-227, looked up)
Vascular endothelial growth …: AHYNTEILKSIDNEWRKTQCMPREVCIDVGKEFGVATNTFFKPPCVSVYRCGGCCNSEGLQCMNTSTSYLSKTLFEITVPLSQGPKPVTISFANHTSCRCMSKLDVYRQVHSIIRR
For B1, the “CD34 expression of organoid vessels, immunofluorescence” value (organoid endothelium; VEGFA+C treated compared to VEGFA) was “induces vessels in the organoid that maintain the expression of CD34” and the “expression of adhesion molecules and hematopoietic regulatory factors (VEGFR3, VCAM1, VLA4, FGF4, CXCR4) in endothelial cells” value (organoid endothelium; VEGFC added to VEGFA, compared to VEGFA or VEGFC alone) was “improved the expression”.
